Our source for the IC50 values is US12240862B2, “Inhibitors of peptidylarginine deiminases” (Gilead Sciences, Inc., priority 2020, dated 2025).

T1 sequence (Q9UM07 2-663): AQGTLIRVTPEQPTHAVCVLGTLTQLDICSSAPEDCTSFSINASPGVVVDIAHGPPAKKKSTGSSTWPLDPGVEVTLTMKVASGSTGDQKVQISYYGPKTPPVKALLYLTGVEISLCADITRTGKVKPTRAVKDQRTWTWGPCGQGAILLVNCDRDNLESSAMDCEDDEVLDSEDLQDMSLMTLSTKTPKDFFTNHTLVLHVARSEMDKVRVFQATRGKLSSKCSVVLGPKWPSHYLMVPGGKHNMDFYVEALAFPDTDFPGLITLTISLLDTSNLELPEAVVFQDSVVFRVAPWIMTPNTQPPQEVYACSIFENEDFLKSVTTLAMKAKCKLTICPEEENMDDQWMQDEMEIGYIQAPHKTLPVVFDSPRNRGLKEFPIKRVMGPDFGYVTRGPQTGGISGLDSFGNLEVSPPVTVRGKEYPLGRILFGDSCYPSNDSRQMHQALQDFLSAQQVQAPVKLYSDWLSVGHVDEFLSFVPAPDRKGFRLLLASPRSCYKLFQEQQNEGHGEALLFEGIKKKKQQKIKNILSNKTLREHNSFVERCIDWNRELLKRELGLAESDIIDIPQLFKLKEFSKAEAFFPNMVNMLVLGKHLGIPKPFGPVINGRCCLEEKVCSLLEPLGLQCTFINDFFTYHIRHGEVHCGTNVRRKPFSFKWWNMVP

This assay has as its target T1, human PAD4 (Homo sapiens, UniProt Q9UM07).
T1 construct: human PAD4 (NM_012387), A2P663, was PCR amplified; His-SUMO (N, cleaved yes); made in house; host or cells: E. coli BL21(DE3)
The assay is described as follows: In vitro PAD4 BAEE biochemical assay. The following applies: human PAD4, BAEE substrate; 5 nM PAD4, 2 mM calcium chloride, 3 mM BAEE; geometric mean of multiple experiments. The method in brief: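 Ammonia generated from BAEE serves as the readout, measured by o-phthalaldehyde after EDTA termination. Final conditions: 5 nM human PAD4 (SUMO tag cleaved), 2 mM CaCl2, 3 mM BAEE, pH 7.6 MOPS buffer, 25 °C for 2 h following a 30-min compound preincubation.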
By IC50 is commonly meant the midpoint of a concentration-inhibition curve. Take `COc1cc(C(=O)N2CCC[C@@H](N)C2)cc2nc(-c3cc4ccc([C@@H](C)NC(=O)C56CC(F)(C5)C6)nc4n3CC3CC3)c(C)n12` [Example 125, ~{N}-[(1~{R})-1-[2-[7-[(3~{R})-3-aminopiperidine-1-carbonyl]-5-methoxy-3-methylimidazo[1,2-a]pyridin-2-yl]-1-(cyclopropylmethyl)pyrrolo[2,3-b]pyridin-6-yl]ethyl]-3-fluorobicyclo[1.1.1] pentane-1-carboxamide]: the IC50 came out at 78.7 nM.
The value for `COc1cc(C(=O)N2[C@H]3CC[C@@H]2[C@H](N)C3)cc2nc(-c3cc4ccc([C@@H](C)NC(=O)c5ccnc(Cl)c5)nc4n3CC3CC3)c(C)n12` [Example 51] was 30.9 nM; that for `COc1cc(C(=O)N2[C@H]3CC[C@@H]2[C@H](N)C3)cc2nc(-c3cc4ccc([C@@H](C)NC(=O)NCc5ncccn5)nc4n3CC3CC3)c(C)n12` [Example 224, 1-[(1~{R})-1-[2-[7-[(1~{R},2~{R},4~{S})-2-amino-7-azabicyclo[2.2.1]heptane-7-carbonyl]-5-methoxy-3-methylimidazo [1,2-a]pyridin-2-yl]-1-(cyclopropylmethyl)pyrrolo [2,3-b]pyridin-6-yl]ethyl]-3-(pyrimidin-2-ylmethyl)urea] was 31.5 nM; that for `COc1cc(C(=O)N[C@H]2CNCC[C@@H]2C)cc2nc(-c3cc4ccc(N(C(F)F)S(C)(=O)=O)nc4n3CC3CC3)c(C)n12` [Example 282, 2-[1-(cyclopropylmethyl)-6-[difluoromethyl (methylsulfonyl)amino]pyrrolo[2,3-b]pyridin-2-yl]-5-methoxy-3-methyl-~{N}-[(3~{R},4~{S})-4-methylpiperidin-3-yl]imidazo[1,2-a] pyridine-7-carboxamide] was 10400 nM.
Regarding `COc1cc(C(=O)N2[C@H]3CC[C@@H]2[C@H](N)C3)cc2nc(-c3cc4ccc([C@@H](C)NC(=O)N5CCN(C)CC5)nc4n3CC3CC3)c(C)n12` [Example 235, ~{N}-[(1~{R})-1-[2-[7-[(1~{R},2~{R},4~{S})-2-amino-7-azabicyclo[2.2.1]heptane-7-carbonyl]-5-methoxy-3-methylimidazo [1,2-a]pyridin-2-yl]-1-(cyclopropylmethyl)pyrrolo [2,3-b]pyridin-6-yl]ethyl]-4-methylpiperazine-1-carboxamide], the IC50 amounted to 63.6 nM.
The value for `COc1cc(C(=O)N2[C@H]3CC[C@@H]2[C@H](N)C3)cc2nc(-c3cc4ccc([C@@H](C)NC(=O)C5CCC5)nc4n3CC3CC3)c(C)n12` [Example 101] was 22.5 nM; that for `COc1cc(C(=O)N2C[C@H]3CC[C@@H]2[C@@H]3N)cc2nc(-c3cc4ccc([C@@H](C)NC(=O)N5CCCC5)nc4n3CC3CC3)c(C)n12` [Example 250, N-((R)-1-(2-(7-((1R,4R,7R)-7-amino-2-azabicyclo[2.2.1]heptane-2-carbonyl)-5-methoxy-3-methylimidazo[1,2-a]pyridin-2-yl)-1-(cyclopropylmethyl)-1H-pyrrolo[2,3-b]pyridin-6-yl)ethyl) pyrrolidine-1-carboxamide] was 193 nM.
For `Cc1c(-c2cc3ccc(N(C(F)F)S(C)(=O)=O)nc3n2CC2CC2)nc2cc(C(=O)N3CCC[C@@H](N)C3)cc(C(F)F)n12` [Example 423, ~{N}-[2-[7-[(3~{R})-3-aminopiperidine-1-carbonyl]-5-(difluoromethyl)-3-methylimidazo[1,2-a]pyridin-2-yl]-1-(cyclopropylmethyl)pyrrolo [2,3-b]pyridin-6-yl]-~{N}-(difluoromethyl) methanesulfonamide], the IC50 was determined as 1770 nM.
Take `COc1cc(C(=O)N2[C@H]3CC[C@@H]2[C@H](N)C3)cc2nc(-c3cc4ccc([C@@H](C)NC(=O)[C@H]5[C@@H]6CC(F)(F)C[C@@H]65)nc4n3CC3CC3)c(C)n12` [Example 8, (1~{R},5~{S})-~{N}-[(1~{R})-1-[2-[7-[(1~{R}, 2~{R},4~{S})-2-amino-7-azabicyclo[2.2.1]heptane-7-carbonyl]-5-methoxy-3-methylimidazo [1,2-a]pyridin-2-yl]-1-(cyclopropylmethyl)pyrrolo[2,3-b]pyridin-6-yl]ethyl]-3,3-difluorobicyclo[3.1.0] hexane-6-carboxamide]: the IC50 stood at 144 nM.
On to `COc1cc(C(=O)N2[C@H]3CC[C@@H]2[C@H](N)C3)cc2nc(-c3cc4ccc([C@@H](C)NC(=O)c5cnccn5)nc4n3CC3CC3)c(C)n12` [Example 83], for which the IC50 was 47.2 nM.
With `COc1cc(C(=O)N2[C@H]3CC[C@@H]2[C@H](N)C3)cc2nc(-c3cc4ccc([C@@H](C)NC(=O)N5CC6CC6C5)nc4n3CC3CC3)c(C)n12` (stereo partly drawn) [Example 246, ~{N}-[(1~{R})-1-[2-[7-[(1~{R},2~{R},4~{S})-2-amino-7-azabicyclo[2.2.1]heptane-7-carbonyl]-5-methoxy-3-methylimidazo [1,2-a]pyridin-2-yl]-1-(cyclopropylmethyl)pyrrolo [2,3-b]pyridin-6-yl]ethyl]-3-azabicyclo[3.1.0]hexane-3-carboxamide], the IC50 turned out to be 82.2 nM.
Regarding `COc1cc(C(=O)N2C[C@@H]3CC[C@H]2CN3)cc2nc(-c3cc4ccc([C@@H](C)NC(=O)C56CC(F)(C5)C6)nc4n3CC3CC3)c(C)n12` [Example 3, ~{N}-[(1~{R})-1-[1-(cyclopropylmethyl)-2-[7-[(1~{S},4~{S})-2,5-diazabicyclo[2.2.2]octane-2-carbonyl]-5-methoxy-3-methylimidazo[1,2-a]pyridin-2-yl]pyrrolo [2,3-b]pyridin-6-yl]ethyl]-3-fluorobicyclo [1.1.1] pentane-1-carboxamide], the IC50 was found to be 11000 nM.
As to `COc1cc(C(=O)N2[C@H]3CC[C@@H]2[C@H](N)C3)cc2nc(-c3cc4ccc([C@@H](C)NC(=O)c5ccccc5)nc4n3CC34CC(C3)C4)c(C)n12` [Example 489, ~{N}-[(1~{R})-1-[2-[7-[(1~{R},2~{R},4~{S})-2-amino-7-azabicyclo[2.2.1]heptane-7-carbonyl]-5-methoxy-3-methylimidazo[1,2-a]pyridin-2-yl]-1-(1-bicyclo [1.1.1]pentanylmethyl)pyrrolo[2,3-b]pyridin-6-yl]ethyl]benzamide], the IC50 was 177 nM.
Consider `COc1cc(C(=O)N2[C@H]3CC[C@@H]2[C@H](N)C3)cc2nc(-c3cc4ccc([C@@H](C)NC(=O)N[C@@H](C)c5cccnc5)nc4n3CC3CC3)c(C3CC3)n12` [Example 217, 1-[(1~{R})-1-[2-[7-[(1~{R},2~{R},4~{S})-2-amino-7-azabicyclo[2.2.1]heptane-7-carbonyl]-3-cyclopropyl-5-methoxyimidazo [1,2-a]pyridin-2-yl]-1-(cyclopropylmethyl)pyrrolo [2,3-b]pyridin-6-yl]ethyl]-3-[(1~{S})-1-pyridin-3-ylethyl]urea], for which the IC50 stood at 45.9 nM.
For the compound `COc1cc(C(=O)N2C[C@H]3CC[C@@H]2[C@H](N)C3)cc2nc(-c3cc4ccc(N(C(F)F)S(C)(=O)=O)nc4n3CC3CC3)c(C)n12` (single isomer, unassigned) [Example 369, ~{N}-[2-[7-[(1~{S},4~{R}, 6~{R})-6-amino-2-azabicyclo[2.2.2]octane-2-carbonyl]-5-methoxy-3-methylimidazo[1,2-a]pyridin-2-yl]-1-(cyclopropylmethyl)pyrrolo [2,3-b]pyridin-6-yl]-~{N}-(difluoromethyl) methanesulfonamide], the IC50 came to 13600 nM.
